Test results: a compilation of properties of binary mixtures (doi:10.1021/je300093r)

Assay: xn = mol fraction of the nth substance listed
Details: 101 kPa

CCCC[n+]1ccccc1.F[B-](F)(F)F + CCCC[n+]1ccccc1.O=S(=O)([N-]S(=O)(=O)C(F)(F)F)C(F)(F)F
x2 = 0
Details | viscosity [mPa·s]
313.15 K | 74.8
323.15 K | 48.1
333.15 K | 33
343.15 K | 23.8

CCCC[n+]1ccccc1.O=S(=O)([N-]S(=O)(=O)C(F)(F)F)C(F)(F)F + CCCC[n+]1ccccc1.F[B-](F)(F)F
viscosity [mPa·s]
Details | 303.15 K | 313.15 K | 323.15 K | 333.15 K | 343.15 K | 353.15 K
x1 = 0.0442 | 115.3 | 70.5 | 46.1 | 31.9 | 22.9 | 17.1
x1 = 0.1119 | 105 | 66.2 | 43.8 | 30.4 | – | –
x1 = 0.2162 | – | 57.6 | 38.6 | 27.3 | – | 15.2
x1 = 0.3217 | 82.6 | 53.1 | 35.7 | 25.5 | 18.7 | 14.4
x1 = 0.4327 | 75.7 | – | 33.3 | 23.8 | 17.6 | –
x1 = 0.5429 | 70.2 | – | 31.8 | 23.1 | 17.3 | –
x1 = 0.6523 | 63.1 | – | 29.8 | – | 16.4 | 12.8
x1 = 0.7643 | – | 39.1 | 27.7 | 20.5 | 15.5 | 12.1
x1 = 0.8822 | 54.1 | – | 25.8 | 19.2 | – | 11.5
x1 = 0.9467 | 52 | 35 | 25 | 18.5 | 14.1 | 11.1
x1 = 1 | 49.4 | 33.8 | – | 17.9 | 13.7 | –
